Results taken from patent publication US6716582B2 (priority 2000, dated 2004).
Values joined by “and” are separate entries in the source; they are usually repeats but may differ in a detail not shown here. Identical values can stand only once.

Assays:
Type in all cases: cell-based, E. coli
[1] = tested on: LuxArray 1.0 luxCDABE gene fusions; experiment: LuxArray 1.0 solid phase nalidixic acid perturbation; conditions: for Solid expt NA/LB: NA 5 μg/ml; for fold upregulation, nalidixic acid treated to untreated: solid LuxArray, 5 μg/ml, 4 hours
Protocol: The E. coli strains were grown overnight at 37° C. in 40 μl LB medium supplemented with 100 μg/ml ampicillin in a set of sixteen 96-well dishes. These cultures were designated “printing plates” and were used as the cell source to manufacture the arrays. Porous membranes (Biodyne B, Nunc) were sterilized with UV illumination for 10 min then placed in contact with pre-warmed of solid LB growth media in a culture dish (OmniTray, Nunc). Printing of 4×4 subarrays was accomplished using a BioMek 2000 (Beckman Coulter) equipped with a High Density Replication Tool (HDRT). […] After sterilization, the pins are air-dried prior to the next transfer. The E. coli strains in the LuxArray were printed onto an approximately 8×12 cm membrane in two sets of triplicates.
Arrays were printed from fresh overnight cultures onto membranes on plates containing LB media. After 6 hr of growth at 37° C. membranes were moved to pre-warmed plates containing either LB media or LB media supplemented with 5 μg/ml nalidixic acid then replaced at 37° C. to continue growing. Images were collected for each array every two hours from 0-8 hr after relocation using a cooled CCD camera (Fluor Chem 8000: f0.85 lens, 2 min exposure, AlphaInnotech).
Spot intensity of each image was determined using ArrayVision™ (Imaging Research, Toronto, Canada) and the resultant pixel density measurements imported into a template with identifiers for each spot. The average signal for each of the triplicate spots was calculated. The background signal, which results from cross illumination of neighboring spots, was calculated by finding the median of the 24 spots containing a strain with the parental plasmid on each of the triplicate arrays and the calculating the average of the three medians. This background signal was calculated at each of the time points and subtracted from each measurement at the corresponding time point. All negative numbers were converted to zero.
Data normalization to account for inhibition of growth by nalidixic acid was accomplished by finding the sum of the averaged signals of each spot in the array for each treatment at each time point. A normalization factor (NF) was calculated as follows:
NF=Total array signal (time zero, LB control)/Total array signal (time x, condition y)
Each measurement was multiplied by NF to yield a normalized signal. Ratios the nalidixic acid treated spot to the corresponding control spot were calculated using the normalized data.
The ratios of the normalized data were compared for each of the […] spots resulting from independent cultures in the array. […] Twelve gene fusions were selected by these criteria (Table 15).

[2] = tested on: luxCDABE gene fusions; experiment: retest of nalidixic acid upregulated fusions in liquid medium; conditions: of 7 conc tested
Protocol: Several concentrations of nalidixic acid were used because the differences in responses between liquid and solid growth were not known. Light production of 100 μl duplicate cultures at 37° C. was quantitated using a 96 well plate luminometer (Luminoskan Ascent, Labsystems). […] It should be noted that the liquid medium tests were not corrected for growth inhibition by nalidixic acid.

[3] = tested on: yebF-luxCDABE fusion; experiment: inverted yebF-luxCDABE fusion induction by DNA damaging agents; conditions: inverted yebF-lux transformants; nalidixic acid
Description: In this case, a divergent promoter to the purT gene was present in the chromosomal fragment and strains containing the backward yebF fusion produced light. Following isolation of plasmid DNA, XmaI digestion that releases the insert DNA from the vector, religation and transformation, 10% of the transformants produced light. […] The orientation of the inserted segment to yield a fusion of yebF to the luxCDABE operon was confirmed by DNA sequence analysis.
To test inverting of a chromosomal segment in a plasmid containing divergent promoters, the backward fusion to yebF was chosen. […] In this case, a divergent promoter to the purT gene was present in the chromosomal fragment and strains containing the backward yebF fusion produced light. Following XmaI digestion, religation and transformation, 10% of the transformants produced light. […] This was verified by DNA sequence analysis. Thus, inverting chromosomal segments containing divergent promoters is possible and is facilitated if the two promoters can be distinguished by their biological activity.

CCn1cc(C(=O)O)c(=O)c2ccc(C)nc21 [Nalidixic acid, nalidixic acid]
Solid expt NA/LB ([1]; dinG ybiB lux-a.pk0024.f5, t = 2 hr, duplicate spots): 2.5 and 3.4
Solid expt NA/LB ([1]; dinG ybiB lux-a.pk0024.f5, t = 4 hr): 3.7 and 4.2
Solid expt NA/LB ([1]; dinG ybiB lux-a.pk0024.f5, t = 6 hr): 3.5 and 3.1
Solid expt NA/LB ([1]; dinG ybiB lux-a.pk0024.f5, t = 8 hr): 2.9 and 2.6
Solid expt NA/LB ([1]; dinP lux-a.pk055.a3, t = 2 hr): 3.1 and 5.5
Solid expt NA/LB ([1]; dinP lux-a.pk055.a3, t = 6 hr): 4.2 and 8.1
Solid expt NA/LB ([1]; frvR frvX frvB frvA lux-a.pk046.e6, t = 2 hr): 2.8 and 2.1
Solid expt NA/LB ([1]; frvR frvX frvB frvA lux-a.pk046.e6, t = 4 hr): 2.3
Solid expt NA/LB ([1]; lpxA lpxB rnhB dnaE lux-a.pk061.c3, t = 2 hr): 3.5 and 2.7
Solid expt NA/LB ([1]; lpxA lpxB rnhB dnaE lux-a.pk061.c3, t = 4 hr): 3.1 and 3.5
Solid expt NA/LB ([1]; lpxA lpxB rnhB dnaE lux-a.pk061.c3, t = 6 hr): 2.8 and 3.0
Solid expt NA/LB ([1]; lpxA lpxB rnhB dnaE lux-a.pk061.c3, t = 8 hr): 1.7 and 1.9
Solid expt NA/LB ([1]; lux-a.pk0015.d6, t = 2 hr): 2.3 and 2.2
Solid expt NA/LB ([1]; lux-a.pk0015.d6, t = 4 hr): 6.4 and 4.1
Solid expt NA/LB ([1]; lux-a.pk0015.d6, t = 6 hr): 2.7 and 1.9
Solid expt NA/LB ([1]; lux-a.pk0015.d6, t = 8 hr): 0.6 and 0.8
Solid expt NA/LB ([1]; lux-a.pk0019.g1, t = 2 hr): 2.5 and 4.4
Solid expt NA/LB ([1]; lux-a.pk0019.g1, t = 4 hr): 7.7 and 8.2
Solid expt NA/LB ([1]; lux-a.pk0019.g1, t = 6 hr): 9.7 and 15.5
Solid expt NA/LB ([1]; lux-a.pk0019.g1, t = 8 hr): 7.1 and 10.2
Solid expt NA/LB ([1]; lux-a.pk033.c5, t = 2 hr): 3.7 and 2.1
Solid expt NA/LB ([1]; lux-a.pk033.c5, t = 4 hr): 4.3 and 3.1
Solid expt NA/LB ([1]; lux-a.pk033.c5, t = 6 hr): 3.2 and 3.3
Solid expt NA/LB ([1]; lux-a.pk033.c5, t = 8 hr): 2.6 and 2.5
Solid expt NA/LB ([1]; oraA lux-a.pk058.f5, t = 2 hr): 5.1 and 4.7
Solid expt NA/LB ([1]; oraA lux-a.pk058.f5, t = 4 hr): 7.9 and 7.7
Solid expt NA/LB ([1]; oraA lux-a.pk058.f5, t = 6 hr): 5.9 and 5.6
Solid expt NA/LB ([1]; oraA lux-a.pk058.f5, t = 8 hr): 3.9 and 3.8
fold upregulation, nalidixic acid treated to untreated ([1]; ruvA-lux, duplicate spots): 1.7 fold and 2.1 fold
Solid expt NA/LB ([1]; uvrA lux-a.pk0001.b6, t = 2 hr): 2.5 and 2.9
Solid expt NA/LB ([1]; uvrA lux-a.pk0001.b6, t = 4 hr): 2.3 and 2.4
Solid expt NA/LB ([1]; uvrA lux-a.pk0001.b6, t = 6 hr): 1.6 and 1.1
Solid expt NA/LB ([1]; uvrA lux-a.pk0001.b6, t = 8 hr): 1.0 and 0.6
fold upregulation, nalidixic acid treated to untreated ([1]; uvrD-lux, duplicate spots): 1.6 fold and 1.9 fold
Solid expt NA/LB ([1]; yaaF lux-a.pk031.e7, t = 2 hr): 2.1 and 2.0
Solid expt NA/LB ([1]; yaaF lux-a.pk031.e7, t = 4 hr): 2.0 and 2.1
Solid expt NA/LB ([1]; yaaF lux-a.pk031.e7, t = 6 hr): 1.3 and 1.8
Solid expt NA/LB ([1]; yaaF lux-a.pk031.e7, t = 8 hr): 1.0 and 1.5
Solid expt NA/LB ([1]; yfhJ fdx hscA yfhE lux-a.pk0019.g2, t = 2 hr): 2.1
Solid expt NA/LB ([1]; yfhJ fdx hscA yfhE lux-a.pk0019.g2, t = 4 hr): 2.0 and 2.2
Solid expt NA/LB ([1]; yfhJ fdx hscA yfhE lux-a.pk0019.g2, t = 6 hr): 1.7 and 1.5
Solid expt NA/LB ([1]; yfhJ fdx hscA yfhE lux-a.pk0019.g2, t = 8 hr): 1.4 and 1.3
Solid expt NA/LB ([1]; yigN lux-a.pk046.f11, t = 4 hr): 2.5 and 4.3
# of conc with > 1.5 fold up ([2]; dinG ybiB lux-a.pk0024.f5): 6
# of conc with > 1.5 fold up ([2]; dinP lux-a.pk055.a3): 7
# of conc with > 1.5 fold up ([2]; frvR frvX frvB frvA lux-a.pk046.e6): 0
# of conc with > 1.5 fold up ([2]; lpxA lpxB rnhB dnaE lux-a.pk061.c3): 3
# of conc with > 1.5 fold up ([2]; lux-a.pk0015.d6): 6
# of conc with > 1.5 fold up ([2]; lux-a.pk0019.g1): 6
# of conc with > 1.5 fold up ([2]; lux-a.pk033.c5): 7
# of conc with > 1.5 fold up ([2]; oraA lux-a.pk058.f5): 7
# of conc with > 1.5 fold up ([2]; yaaF lux-a.pk031.e7): 3
# of conc with > 1.5 fold up ([2]; yfhJ fdx hscA yfhE lux-a.pk0019.g2): 0
# of conc with > 1.5 fold up ([2]; yigN lux-a.pk046.f11): 5
induction of bioluminescence [3]: highly induced
